Experimental data: ChEMBL document CHEMBL6092203, “Discovery of Novel PROTAC-Based HPK1 Degraders with High Potency and Selectivity for Cancer Immunotherapy” (J Med Chem, 2024)
Calls of active or inactive are those of the source. The calls are words filed in the database; no cut-off is given here.

Legend:
MC-38 [1] = assay: Synergistic antitumor activity against mouse MC38 cells implanted in C57BL/6J mouse assessed as reduction in tumor volume at 0.5 mg/kg, po bid administered for 3 to 4 weeks in presence of 5 mg/kg anti-PD1 and measured twice a week (reference value: 1549.22 +/- 217.92 mm3); assay type: functional; conditions: time 3-4 weeks
[2] = Toxicity in Sprague-Dawley rat assessed as no observable adverse effect level exposure measured after 14 days; conditions: in vivo, 336 h, time 14 day
[3] = Toxicity in C57BL/6J mouse assessed as body weight loss at 0.02 to 0.5 mg/kg, po qd administered for 3 to 4 weeks; assay type: organism-based; conditions: in vivo, dose lower 0.02 mg/kg, time lower 3 weeks, dose upper 0.5 mg/kg, time upper 4 weeks
in vivo [4] = conditions: beagle, dog, po, 5 mg/kg
Description: Cmax in Beagle dog at 5 mg/kg, po measured upto 24 hrs by LC-MS analysis

Jurkat [5] = assay: Induction of GCK degradation in human Jurkat cells at 1 to 1000 nM incubated for 24 hrs by Western blotting analysis; assay type: cell-based; conditions: dose 1-1000 nM
[6] = AUCinfinity in Beagle dog at 5 mg/kg, po measured upto 24 hrs by LC-MS analysis; assay type: ADME, organism-based, Canis lupus familiaris; conditions: in vivo
MC-38 [7] = assay: Antitumor activity against mouse MC38 cells implanted in po dosed C57BL/6J mouse assessed as tumor growth inhibition administered for 3 to 4 weeks; assay type: functional, organism-based; conditions: time 3-4 weeks
MC-38 [8] = assay: Antitumor activity against mouse MC38 cells implanted in C57BL/6J mouse assessed as reduction in tumor weight at 0.5 mg/kg, po BID administered for 3 to 4 weeks (reference value: 1.79 +/- 0.24 g); assay type: functional; conditions: time 3-4 weeks
MC-38 [9] = assay: Antitumor activity against mouse MC38 cells implanted in C57BL/6J mouse assessed as tumor growth inhibition at 0.1 mg/kg, po BID measured after 4 weeks; assay type: functional; conditions: MC-38, 672 h, read-out: TGI
in vivo [10] = conditions: female, Sprague-Dawley, rat, po, 30 mg/kg
[11] = Tmax in Beagle dog at 5 mg/kg, po measured upto 24 hrs by LC-MS analysis; assay type: ADME, organism-based, Canis lupus familiaris; conditions: in vivo
MC-38 [12] = assay: Synergistic antitumor activity against mouse MC38 cells implanted in C57BL/6J mouse assessed as tumor growth inhibition at 0.1 mg/kg, po bid measured after 4 weeks in presence of 5 mg/kg anti-PD1 and measured twice a week; assay type: functional; conditions: MC-38, 672 h, read-out: TGI
in vivo [13] = conditions: female, Sprague-Dawley, rat, po, 2 mg/kg
in vivo [14] = conditions: male, Sprague-Dawley, rat, po, 2 mg/kg
MC-38 [15] = assay: Antitumor activity against mouse MC38 cells implanted in C57BL/6J mouse assessed as tumor growth inhibition at 0.5 mg/kg, IG BID administered for 3 to 4 weeks; assay type: functional, organism-based; conditions: time 3-4 weeks
MC-38 [16] = assay: Antitumor activity against mouse MC38 cells implanted in C57BL/6J mouse assessed as reduction in tumor volume at 0.5 mg/kg, po BID administered for 3 to 4 weeks (reference value: 1549.22 +/- 217.92 mm3); assay type: functional; conditions: time 3-4 weeks
[17] = Drug distribution in rat brain measured after 2 hrs; assay type: ADME, tissue-based; conditions: in vivo
Jurkat [18] = assay: Effect on p-SLP76 at Y145 residue protein expression in human Jurkat cells at 1 to 2000 nM incubated for 24 hrs by Western blotting analysis; assay type: functional, cell-based; conditions: dose 1-2000 nM
[19] = Toxicity in C57BL/6J mouse assessed as change in body weight at 0.1 to 1 mg/kg, po bid measured after 28 days in presence of 5 mg/kg anti-PD1; assay type: organism-based; conditions: in vivo, 672 h, dose 0.1-1 mg/kg, time 28 day
[20] = Drug metabolism in dog hepatocytes assessed as phase 2 metabolites formation at 10 uM incubated for 120 mins by UHPLC-UV/MS/MS method; assay type: ADME, cell-based, Canis lupus familiaris, Hepatocyte; conditions: 2 h
[21] = Effect on action potential in rabbit purkinje fibers; assay type: toxicity, tissue-based, Oryctolagus cuniculus, Purkinje fiber
[22] = Drug metabolism in monkey hepatocytes assessed as phase 2 metabolites formation at 10 uM incubated for 120 mins by UHPLC-UV/MS/MS method; assay type: ADME, cell-based, Macaca mulatta, Hepatocyte; conditions: rhesus monkey, 2 h
[23] = Apparent volume of distribution in mouse at 2 mg/kg, iv measured upto 24 hrs by LC-MS analysis; assay type: ADME, organism-based; conditions: in vivo
[24] = AUCinfinity in C57BL/6J mouse at 10 mg/kg, po measured upto 24 hrs by LC-MS analysis; assay type: ADME, organism-based; conditions: in vivo
[25] = Tmax in female Sprague-Dawley rat at 30 mg/kg/day, po measured at day 1; assay type: ADME, organism-based; conditions: in vivo, time 1 day
[26] = Metabolic stability in mouse hepatocytes assessed as intrinsic clearance at 1 uM incubated for 90 mins by LC-MS/MS method; assay type: ADME, cell-based, Hepatocyte; conditions: 1.5 h
hERG (KCNH2) = hERG (KCNH2) (Homo sapiens, UniProt Q12809); assay: Inhibition of human ERG at 3 uM by patch clamp method relative to control; assay type: toxicity
[27] = AUCinfinity in Sprague-Dawley rat at 1 mg/kg, po measured upto 24 hrs by LC-MS analysis; assay type: ADME, organism-based; conditions: in vivo
in vivo [28] = conditions: male, Sprague-Dawley, rat, po, 30 mg/kg
[29] = Tmax in C57BL/6J mouse at 10 mg/kg, po measured upto 24 hrs by LC-MS analysis; assay type: ADME, organism-based; conditions: in vivo
[30] = Apparent permeability across basolateral to apical side in human Caco-2 cells at 10 uM incubated for 2 hrs by LC-MS/MS analysis; assay type: ADME, cell-based
[31] = Clearance in mouse at 2 mg/kg, iv measured upto 24 hrs by LC-MS analysis; assay type: ADME, organism-based; conditions: in vivo
MC-38 [32] = assay: Synergistic antitumor activity against mouse MC38 cells implanted in C57BL/6J mouse assessed as tumor growth inhibition at 1 mg/kg, po bid measured after 4 weeks in presence of 5 mg/kg anti-PD1 and measured twice a week; assay type: functional; conditions: MC-38, 672 h, read-out: TGI
MC-38 [33] = assay: Antitumor activity against mouse MC38 cells implanted in C57BL/6J mouse assessed as tumor weight inhibition rate at 100 mg/kg, po QD administered for 4 weeks; assay type: functional; design: scale not given: the % may be the effect or the level left
MC-38 [34] = assay: Antitumor activity against mouse MC38 cells implanted in C57BL/6J mouse assessed as reduction in tumor volume at 100 mg/kg, po QD administered for 3 to 4 weeks (reference value: 1549.22 +/- 217.92 mm3); assay type: functional; conditions: time 3-4 weeks
MC-38 [35] = assay: Antitumor activity against mouse MC38 cells implanted in C57BL/6J mouse assessed as reduction in tumor weight at 0.1 mg/kg, po BID administered for 3 to 4 weeks (reference value: 1.79 +/- 0.24 g); assay type: functional; conditions: time 3-4 weeks
[36] = AUC(0 to 24 hrs) in female Sprague-Dawley rat at 100 mg/kg/day, po measured at day 1; assay type: ADME, organism-based; conditions: in vivo, time 1 day
[37] = In vivo induction of phosphorylated SLP-76 degradation in C57BL/6J mouse spleen at 0.5 mg/kg administered as single dose and measured after 12 hrs; assay type: functional
[38] = AUC(0 to 24 hrs) in male Sprague-Dawley rat at 2 mg/kg/day, po measured at day 1; assay type: ADME, organism-based; conditions: in vivo, time 1 day
[39] = Half-life in Beagle dog at 1 mg/kg, iv measured upto 24 hrs by LC-MS analysis; conditions: in vivo

hERG (KCNH2), sequence (Q12809 whole entry): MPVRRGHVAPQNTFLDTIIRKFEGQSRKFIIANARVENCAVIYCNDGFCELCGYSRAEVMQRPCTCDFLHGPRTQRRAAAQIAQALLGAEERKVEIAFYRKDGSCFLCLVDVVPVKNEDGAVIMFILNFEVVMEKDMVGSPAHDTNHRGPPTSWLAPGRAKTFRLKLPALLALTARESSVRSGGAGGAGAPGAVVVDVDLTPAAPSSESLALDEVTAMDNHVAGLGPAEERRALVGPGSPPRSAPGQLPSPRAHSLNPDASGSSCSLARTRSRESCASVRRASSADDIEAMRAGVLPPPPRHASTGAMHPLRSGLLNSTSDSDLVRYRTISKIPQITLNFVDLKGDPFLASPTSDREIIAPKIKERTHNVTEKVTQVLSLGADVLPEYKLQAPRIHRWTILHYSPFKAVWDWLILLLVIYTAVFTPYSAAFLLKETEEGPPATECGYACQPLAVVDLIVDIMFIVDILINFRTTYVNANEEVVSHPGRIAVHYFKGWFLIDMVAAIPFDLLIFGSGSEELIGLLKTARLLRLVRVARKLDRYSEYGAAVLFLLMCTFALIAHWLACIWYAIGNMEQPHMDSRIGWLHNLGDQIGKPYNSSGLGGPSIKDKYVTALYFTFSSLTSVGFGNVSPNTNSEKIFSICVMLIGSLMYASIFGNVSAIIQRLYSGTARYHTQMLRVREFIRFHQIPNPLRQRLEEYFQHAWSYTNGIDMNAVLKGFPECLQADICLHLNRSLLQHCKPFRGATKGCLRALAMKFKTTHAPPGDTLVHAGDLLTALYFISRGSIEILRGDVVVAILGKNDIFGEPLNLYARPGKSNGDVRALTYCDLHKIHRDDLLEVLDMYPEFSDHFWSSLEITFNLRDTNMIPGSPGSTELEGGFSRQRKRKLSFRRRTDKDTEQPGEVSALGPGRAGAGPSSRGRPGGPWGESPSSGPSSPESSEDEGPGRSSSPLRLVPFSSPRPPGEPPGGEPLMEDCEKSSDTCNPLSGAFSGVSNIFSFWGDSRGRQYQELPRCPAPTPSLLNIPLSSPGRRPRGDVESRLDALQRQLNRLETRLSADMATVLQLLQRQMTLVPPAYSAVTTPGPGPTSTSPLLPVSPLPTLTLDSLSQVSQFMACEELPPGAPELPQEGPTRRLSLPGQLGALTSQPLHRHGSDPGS

SMILES: O=C1CCN(c2cc(C(=O)N3CCC(CC4CCN(c5ccc(-c6cnc7[nH]cc(-c8cnn(CC(F)(F)F)c8)c7n6)cn5)CC4)CC3)ccc2Cl)C(=O)N1
- Activity (MC-38 [1]): 139.36 mm3
- NOAEL [2]: 136000 ng·h/mL
- Activity [3]: Non-toxic
- Cmax at 24 h (in vivo [4]): 111 ng/mL
- Activity (Jurkat [5]): inactive
- AUC(0-inf) [6]: 796 ng·h/mL
- Activity (MC-38 [7]): Dose-dependent-effect; Twice Daily Dose Was Slightly Better Than Once Daily
- Activity (MC-38 [8]): 1.04 g
- inhibition in vivo at 0.1 mg/kg (MC-38 [9]): 28.5%
- Cmax at 24 h (in vivo [10]): 4900 ng/mL
- Tmax [11]: 2.67 h
- inhibition in vivo at 0.1 mg/kg (MC-38 [12]): 39.7%
- Cmax at 336 h (in vivo [13]): 140 ng/mL
- AUC at 336 h (in vivo [14]): 830 ng·h/mL
- Activity (MC-38 [15]): Active; Comparable To 100 Mg/Kg Dd203-1 Treatement Group
- Activity (MC-38 [16]): 752.98 mm3
- Drug uptake [17]: Active
- Activity (Jurkat [18]): inactive
- Activity [19]: Non-toxic
- Drug metabolism [20]: metabolite_detected
- Activity [21]: Non-toxic
- Drug metabolism [22]: metabolite_detected
- Vz [23]: 0.121 L/kg
- AUC(0-inf) [24]: 12100 ng·h/mL
- Tmax [25]: 8 h
- CLH [26]: 1.52 µL/min/mg
- inhibition at 3 µM (hERG (KCNH2)): 4.36%
- AUC(0-inf) [27]: 894 ng·h/mL
- Cmax at 336 h (in vivo [28]): 3200 ng/mL
- Tmax [29]: 1 h
- Papp B→A at 2 h, 10 µM [30]: 0.112 ×10⁻⁶ cm/s
- clearance [31]: 0.598 mL/min/kg
- inhibition in vivo at 1 mg/kg (MC-38 [32]): 78.2%
- Activity (MC-38 [33]): 48.76%
- Activity (MC-38 [34]): 667.6 mm3
- Activity (MC-38 [35]): 1.4 g
- AUC(0-t) at 24 h [36]: 110000 ng·h/mL
- Emax at 0.5 mg/kg [37]: 77.6%
- AUC(0-t) at 24 h [38]: 1040 ng·h/mL
- half-life at 24 h [39]: 4.86 h
